Assay results as given in publication PMC3652859, “Inhibitor Discovery of Full-Length New Delhi Metallo-β-Lactamase-1 (NDM-1)” (PLoS ONE, 2013).
“And” between values parts separate entries of the source, which are not always exact repeats. Equal entries are not always repeated. Where two headings read alike, the source gives them in different places.

Legend:
full-length NDM-1 [1] = target: T1, full-length NDM-1 (Klebsiella pneumoniae, UniProt C7C422); format: biochemical, E. coli; design: The full-length NDM-1 enzyme was isolated to 95% purity as indicated by the SDS-PAGE; His6 tag (pET30a leader) (N, cleaved yes); made in house; host or cells: E. coli BL21 (DE3) carrying pET30a-NDM-1
From the text: (§1) Benzylpenicillin (Sangon, Shanghai, China), ampicillin (Sangon, Shanghai, China), cefuroxime (Sigma, St. Louis, USA), ceftazidime (TCI, Shanghai, China), ceftizoxime (TCI, Shanghai, China), cefpiramide (Shandong Lukang, Shandong, China), imipenem (Shenzhen Haibin, Guangdong, China), meropenem (Zhejiang Hisun, Zhejiang, China) and aztreonam (Hunan Kelun, Hunan, China) were used as substrates for determining the steady-state kinetic constants.
(§2) Hydrolysis of the antibiotics by NDM-1 was followed by monitoring the variation in the absorbance of the β-lactam solution in 20 mM HEPES buffer, pH 6.8, 0.25 M NaCl, 2 mM 1,4-Dithio-DL-threitol (DTT) (Sangon, Shanghai, China), 100 µM Zn(NO3)2. All the measurements were made on a UV−1800 spectrophotometer (Mapada, Shanghai, China). The reactions were performed in a total volume of 100 µl at 30°C. BSA (20 µg/ml) was added to diluted solutions of β-lactamase in order to prevent enzyme denaturation. […] The extinction coefficients and wavelengths used in the assays were those described by Laraki et al and Thomas et al. The steady-state kinetic parameters (K m and k cat) were determined more than three times by fitting the concentration dependence of initial rate measurements to the Michaelis−Menten equation using GraphPad Prism (GraphPad Software, La Jolla, America).

[2] = system: E. coli BL21 (DE3)/pET30a-NDM-1; assay: microbe, parasite or virus in culture; format: cell-based; conditions: for synergistic antibacterial activity with meropenem / sensitization of the strain to clinically achievable concentrations of meropenem: result in words; for sensitization of the strain to clinically achievable concentrations of meropenem: inhibitor at the level of 100 µM
Protocol: E. coli BL21 (DE3) was used as a control in the experiment. E. coli BL21 (DE3)/pET30a-NDM-1 was grown overnight in MH broth media (Tianhe Microbial Agents, Hangzhou, China) containing kanamycin (30 µg/ml) at 37°C. Determination of antibacterial synergy was completed using a twofold serial dilution method, as recommended by CLSI guidelines. […] The 96-well microplates were incubated at 37°C with continuous shaking for 18 h and a reading at 630 nm was taken to determine minimum inhibitory concentrations (MICs), [22]. […] Each concentration reading was repeated three times. All of the above experiments were repeated at least twice.

[3] = Solubility behaviour in testing buffer of the IC50 assay; format: physicochemical; conditions: result in words
full-length NDM-1 [4] = target: T1, full-length NDM-1; assay: biochemical
Protocol: The compounds to be tested were dissolved in DMSO prior to incubation with the enzyme, with the final concentration of DMSO in the assay not exceeding 0.5% (vol/vol). At concentrations below 0.5%, no effect of DMSO on the enzyme activity was observed. IC50s were deduced from a plot of percent loss of activity versus inhibitor concentration. […] The precision of these determinations was within the range of precision 10%.

E. coli BL21 (DE3) = assay: MIC of meropenem against control strain; format: cell-based; conditions: Escherichia coli
Protocol: E. coli BL21 (DE3)/pET30a-NDM-1, which is similar to clinical NDM-1-carrying isolates and safer than clinical isolates, was used to evaluate the potential ability of NDM-1 inhibitors to reverse NDM-1-mediated carbapenem resistance in bacteria. E. coli BL21 (DE3) was used as a control in the experiment. E. coli BL21 (DE3)/pET30a-NDM-1 was grown overnight in MH broth media (Tianhe Microbial Agents, Hangzhou, China) containing kanamycin (30 µg/ml) at 37°C. Determination of antibacterial synergy was completed using a twofold serial dilution method, as recommended by CLSI guidelines. […] The 96-well microplates were incubated at 37°C with continuous shaking for 18 h and a reading at 630 nm was taken to determine minimum inhibitory concentrations (MICs), [22]. […] Each concentration reading was repeated three times. All of the above experiments were repeated at least twice.

[5] = system: CC(C)(O/N=C(\C(=O)N[C@@H]1C(=O)N2C(C(=O)[O-])=C(C[n+]3ccccc3)CS[C@H]12)c1csc(N)n1)C(=O)O; assay: purified protein, by the assay type; format: biochemical, E. coli; conditions: other: substrate hydrolysis, 20 mM HEPES pH 6.8, 30°C
From the text: as §1, §2

[6] = system: CC1(C)S[C@@H]2[C@H](NC(=O)Cc3ccccc3)C(=O)N2[C@H]1C(=O)O; assay: purified protein, by the assay type; format: biochemical, E. coli; conditions: other: substrate hydrolysis, 20 mM HEPES pH 6.8, 30°C
From the text: as §1, §2

[7] = system: CC1(C)S[C@@H]2[C@H](NC(=O)[C@H](N)c3ccccc3)C(=O)N2[C@H]1C(=O)O; assay: purified protein, by the assay type; format: biochemical, E. coli; conditions: other: substrate hydrolysis, 20 mM HEPES pH 6.8, 30°C
From the text: as §1, §2

[8] = system: CO/N=C(\C(=O)N[C@@H]1C(=O)N2C(C(=O)O)=C(COC(N)=O)CS[C@H]12)c1ccco1; assay: purified protein, by the assay type; format: biochemical, E. coli; conditions: other: substrate hydrolysis, 20 mM HEPES pH 6.8, 30°C
From the text: as §1, §2

[9] = system: C[C@@H](O)[C@H]1C(=O)N2C(C(=O)O)=C(SCCN=CN)C[C@H]12; assay: purified protein, by the assay type; format: biochemical, E. coli; conditions: other: substrate hydrolysis, 20 mM HEPES pH 6.8, 30°C
From the text: as §1, §2

[10] = system: CO/N=C(\C(=O)N[C@@H]1C(=O)N2C(C(=O)O)=CCS[C@H]12)c1csc(N)n1; assay: purified protein, by the assay type; conditions: other: substrate hydrolysis, 20 mM HEPES pH 6.8, 30°C
[11] = system: Cc1cc(O)c(C(=O)N[C@@H](C(=O)N[C@@H]2C(=O)N3C(C(=O)O)=C(CSc4nnnn4C)CS[C@H]23)c2ccc(O)cc2)cn1; assay: purified protein, by the assay type; conditions: other: substrate hydrolysis, 20 mM HEPES pH 6.8, 30°C
[12] = substrate hydrolysis, 20 mM HEPES pH 6.8, 30°C

T1 sequence (C7C422 29-270 limits assumed): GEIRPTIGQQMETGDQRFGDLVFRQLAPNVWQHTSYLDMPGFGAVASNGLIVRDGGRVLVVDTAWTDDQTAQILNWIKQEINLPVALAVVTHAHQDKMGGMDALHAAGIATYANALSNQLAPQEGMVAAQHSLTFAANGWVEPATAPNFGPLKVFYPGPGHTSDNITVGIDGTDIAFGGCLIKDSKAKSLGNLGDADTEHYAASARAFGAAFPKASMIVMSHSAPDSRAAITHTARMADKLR

Row | Compound | K m (full-length NDM-1 [1]; [12]) | MICs of meropenem in combination with NDM-1 inhibitors ([2]; inhibitor at 6.25 µM) | MICs of meropenem in combination with NDM-1 inhibitors ([2]; inhibitor at 12.5 µM) | MICs of meropenem in combination with NDM-1 inhibitors ([2]; inhibitor at 25.0 µM) | MICs of meropenem in combination with NDM-1 inhibitors ([2]; inhibitor at 50.0 µM) | synergistic antibacterial activity with meropenem [2] | IC50 (full-length NDM-1 [4]) | further results
1 | CC1(C)S[C@@H]2[C@H](NC(=O)[C@H](N)c3ccccc3)C(=O)N2[C@H]1C(=O)O [Ampicillin, ampicillin] | 18 ± 1 µM | – | – | – | – | – | – | K m (full-length NDM-1 [1]; substrate hydrolysis, 20 mM HEPES pH 6.8, 30°C, listed as ampicillin): 18 µM
2 | C[C@H]1[C@H](NC(=O)/C(=N\OC(C)(C)C(=O)O)c2csc(N)n2)C(=O)N1S(=O)(=O)O [Aztreonam, aztreonam] | – | – | – | – | – | – | – | hydrolysis by NDM-1 / kinetic constants (full-length NDM-1 [1]; result in words): kinetic constants could not be calculated
3 | CC1(C)S[C@@H]2[C@H](NC(=O)Cc3ccccc3)C(=O)N2[C@H]1C(=O)O [Benzylpenicillin] | 13 ± 1 µM | – | – | – | – | – | – | K m (full-length NDM-1 [1]; substrate hydrolysis, 20 mM HEPES pH 6.8, 30°C, listed as benzylpenicillin): 13 µM
4 | Cc1cc(O)c(C(=O)N[C@@H](C(=O)N[C@@H]2C(=O)N3C(C(=O)O)=C(CSc4nnnn4C)CS[C@H]23)c2ccc(O)cc2)cn1 [Cefpiramide, cefpiramide] | 39 ± 3 µM | – | – | – | – | – | – | –
5 | CC(C)(O/N=C(\C(=O)N[C@@H]1C(=O)N2C(C(=O)[O-])=C(C[n+]3ccccc3)CS[C@H]12)c1csc(N)n1)C(=O)O [Ceftazidime, ceftazidime] | 129 ± 9 µM | – | – | – | – | – | – | K m (full-length NDM-1 [1]; substrate hydrolysis, 20 mM HEPES pH 6.8, 30°C, listed as ceftazidime): 129 µM
6 | CO/N=C(\C(=O)N[C@@H]1C(=O)N2C(C(=O)O)=CCS[C@H]12)c1csc(N)n1 [Ceftizoxime, ceftizoxime] | 29 ± 2 µM | – | – | – | – | – | – | –
7 | CO/N=C(\C(=O)N[C@@H]1C(=O)N2C(C(=O)O)=C(COC(N)=O)CS[C@H]12)c1ccco1 [Cefuroxime, cefuroxime] | 12 µM and 12 ± 1 µM | – | – | – | – | – | – | –
8 | COC(=O)c1cc(OCc2ccccc2)c(C(=O)OC)s1 [Compound 1] | – | 256 µg/mL | 256 µg/mL | 256 µg/mL | 256 µg/mL | did not exhibited synergistic antibacterial effect | > 300 µM | solubility [3]: precipitated out at high concentrations
9 | COC(=O)c1sc(C(=O)OC)c(OCc2ccccc2)c1OCc1ccccc1 [Compound 2] | – | 256 µg/mL | 256 µg/mL | 256 µg/mL | 256 µg/mL | did not exhibited synergistic antibacterial effect | > 100 µM | solubility [3]: precipitated out at high concentrations
10 | COC(=O)c1sc(C(=O)OC)c(OCc2nnn[nH]2)c1OCc1nnn[nH]1 [Compound 3] | – | 256 µg/mL | 256 µg/mL | 128 µg/mL | 32 µg/mL | showed synergistic antibacterial activity | 980 µM | MICs of meropenem in combination with NDM-1 inhibitors ([2]; inhibitor at 100.0 µM): 32 µg/mL; solubility [3]: better solubility
11 | O=C(O)C(C(=O)O)c1cc(Cc2nnn[nH]2)sc1Cc1nnn[nH]1 [Compound 4] | – | 128 µg/mL | 64 µg/mL | 64 µg/mL | 32 µg/mL | showed synergistic antibacterial activity | 280 µM | MICs of meropenem in combination with NDM-1 inhibitors ([2]; inhibitor at 100.0 µM): 16 µg/mL; sensitization of the strain to clinically achievable concentrations of meropenem [2]: able to sensitize the strain to clinically achievable concentrations of meropenem; solubility [3]: stronger solubility
12 | O=C(O)C(C(=O)O)c1ccsc1 [Compound 5, 3-thiophenemalonic acid] | – | 256 µg/mL | 128 µg/mL | 64 µg/mL | 32 µg/mL | showed synergistic antibacterial activity | 610 µM | MICs of meropenem in combination with NDM-1 inhibitors ([2]; inhibitor at 100.0 µM): 16 µg/mL; sensitization of the strain to clinically achievable concentrations of meropenem [2]: able to sensitize the strain to clinically achievable concentrations of meropenem
13 | C[C@@H](O)[C@H]1C(=O)N2C(C(=O)O)=C(SCCN=CN)C[C@H]12 [Imipenem, imipenem] | 127 ± 11 µM | – | – | – | – | – | – | K m (full-length NDM-1 [1]; substrate hydrolysis, 20 mM HEPES pH 6.8, 30°C, listed as imipenem): 127 µM
14 | C[C@@H](O)[C@H]1C(=O)N2C(C(=O)O)=C(S[C@@H]3CN[C@H](C(=O)N(C)C)C3)[C@H](C)[C@H]12 [Meropenem, meropenem] | 68 ± 6 µM | – | – | – | – | – | – | MIC ([2]; Escherichia coli): 256 µg/mL; MIC (E. coli BL21 (DE3)): 2 µg/mL; V max (full-length NDM-1 [1]; [12]): 2.0 ± 0.15 µM/s; k cat (full-length NDM-1 [1]; [12]): 4.0 s⁻¹; K m (full-length NDM-1 [1]; substrate hydrolysis, 20 mM HEPES pH 6.8, 30°C, listed as meropenem): 68 µM
15 | full-length NDM-1 (Klebsiella pneumoniae) | – | – | – | – | – | – | – | kcat [5]: 3.6 s⁻¹; kcat/Km [5]: 30000 M⁻¹ s⁻¹; kcat [6]: 10 s⁻¹ and 16.7 s⁻¹; kcat/Km [6]: 1.28e+06 M⁻¹ s⁻¹; kcat [7]: 10 s⁻¹ and 11.4 s⁻¹; kcat/Km [7]: 630000 M⁻¹ s⁻¹; kcat [8]: 2.6 s⁻¹; kcat/Km [8]: 220000 M⁻¹ s⁻¹; kcat [9]: 10 s⁻¹ and 10.8 s⁻¹; kcat/Km [9]: 90000 M⁻¹ s⁻¹; kcat [10]: 3 s⁻¹; kcat/Km [10]: 100000 M⁻¹ s⁻¹; kcat [11]: 1.4 s⁻¹; kcat/Km [11]: 40000 M⁻¹ s⁻¹
